The text below walks through data of US20250319140A1, “COMPOSITION” (MEIJI CO., LTD., priority 2019, published 2025).

Experiment [1] is described as follows: Weight gain suppressing effect in mice fed a high fat diet (body weight, weight gain, fat weight around the testes). The class given is in vivo. The settings on record: male C57BL/6J mice, compared with control group. As to the method: Male, 8-week-old C57BL/6J mice were divided into 5 groups and fed with a normal diet (AIN-93M) (manufactured by Oriental Yeast Co., Ltd.) or a high fat diet (HFD-60) (manufactured by Oriental Yeast Co., Ltd.). The groups fed with a high fat diet were administered with fructo-oligosaccharide (hereinafter, also referred to as “FOS”), a propionic acid bacterium (Propionibacterium freudenreichii ET-3, Accession No. FERM BP-8115, hereinafter also referred to as “P bacterium”), or both FOS and a propionic acid bacterium (hereinafter, also referred to as “FOS+P bacterium”), and bred for 8 weeks. The group fed with the high fat diet, but not administered with FOS and a propionic acid bacterium was defined as a control group. Meioligo™ P (manufactured by Meiji Food Materia Co., Ltd.) was used as FOS, which was incorporated in the high fat diet in an amount of 5% by mass, and administered. A bacterial solution (living cells) activated and cultured in GAM bouillon (manufactured by Nissui Pharmaceutical Co., Ltd.) was washed with physiological saline, and then the number of propionic acid bacteria was adjusted to 5×10^9 cfu/mL to prepare a propionic acid bacterium. This bacterial solution was forcibly administered orally at a dose of 0.2 mL once daily every day from the start date to the end date of the test. To the groups not administered with the propionic acid bacterium (normal diet group, control group and FOS-administered group), physiological saline was forcibly administered orally at a dose of 0.2 mL once daily every day from the start date to the end date of the test. The body weight during the test period, the fat weight around the testes at the time of dissection, and the propionic acid concentration in feces collected at the end day of the test were measured, and the amount of weight gain was calculated from the body weights at the start and end of the test, and used for evaluation.

The test system of experiment [2] is propionic acid production in the intestine. The experiment can be described thus: Propionic acid concentration in feces of high fat diet-fed mice, measured by HPLC. The class given is in vivo. The settings on record: male C57BL/6J mice, feces collected at the end day of the test, compared with control group, P <0.05 paired t-test for the combination. As to the method:
Male, 8-week-old C57BL/6J mice were divided into 5 groups and fed with a normal diet (AIN-93M) (manufactured by Oriental Yeast Co., Ltd.) or a high fat diet (HFD-60) (manufactured by Oriental Yeast Co., Ltd.). The groups fed with a high fat diet were administered with fructo-oligosaccharide (hereinafter, also referred to as “FOS”), a propionic acid bacterium (Propionibacterium freudenreichii ET-3, Accession No. FERM BP-8115, hereinafter also referred to as “P bacterium”), or both FOS and a propionic acid bacterium (hereinafter, also referred to as “FOS+P bacterium”), and bred for 8 weeks. The group fed with the high fat diet, but not administered with FOS and a propionic acid bacterium was defined as a control group. Meioligo™ P (manufactured by Meiji Food Materia Co., Ltd.) was used as FOS, which was incorporated in the high fat diet in an amount of 5% by mass, and administered. […] The body weight during the test period, the fat weight around the testes at the time of dissection, and the propionic acid concentration in feces collected at the end day of the test were measured, and the amount of weight gain was calculated from the body weights at the start and end of the test, and used for evaluation.
The propionic acid concentration in the feces was measured by HPLC after extracting the propionic acid from the feces. […]

In the case of “Propionibacterium freudenreichii ET-3 [propionic acid bacterium]”, the body weight result in experiment [1] (high fat diet (HFD-60), from the 6th week on of 8 weeks breeding) is recorded as “lower in the propionic acid bacterium-administered group than those in the control group”. For the same substance, the “fat weight around the testes” value in experiment [1] (high fat diet, at dissection at end of 8-week test) is “low”. Also, the “amount of weight gain” value in experiment [1] (high fat diet, end day of the test (8 weeks) relative to initial body weight) was “low”. In addition, in experiment [2], the “propionic acid concentration in the feces” value is on record as “clearly higher than that in the control group”.
